Results taken from paper PMC7037732, “Synthesis of Combretastatin A-4 and 3′-Aminocombretastatin A-4 derivatives with Aminoacid Containing Pendants and Study of their Interaction with Tubulin and as Downregulators of the VEGF, hTERT and c-Myc Gene Expression” (Molecules, 2020).

Columns and labels:
[1] = tested on: VEGF gene; experiment: VEGF gene expression by RT-qPCR in HT-29 cells; format: cell-based, human
Description: (§1) The effect on the expression of VEGF, hTERT and c-Myc genes has been studied for CA-4 and its derivatives that show selectivity indexes higher than 0.9 on the HT-29 cell line. The studied derivatives, together with the concentrations to which they have been tested, are CA-4 (15 μM); 4.1 (Gly, 5 μM); 4.5 (L-Pro, 25 μM); 4.9 (L-Met, 25 μM); 6.2 (D-Leu, 25 μM); 6.3 (D-Phe, 25 μM); 6.4 (D-Pro, 25 μM) and 6.5 (D-Ser, 10 μM). The expression of the genes was determined by RT-qPCR methodology, as described in the Materials and Methods section.
(§2) As regards AmCA-4 derivatives, the effect on the expression of the VEGF, hTERT and c-Myc genes has been studied on those that show IC50 in the low nanomolar range on the HT-29 cell line and/or on compounds whose selectivity indexes with respect to this cell line are higher than 1. The studied compounds, together with the concentrations to which they have been tested, are: CA-4 (15 μM), AmCA-4 (15 nM), 7.1 (7 nM), 7.2 (1.5 nM), 7.3 (4 nM), 7.4 (15 nM), 7.5 (2 nM), 7.7 (7 nM), 7.8 (15 nM), 7.9 (30 nM), 8.1 (7 nM), 8.2 (3 nM), 8.3 (10 nM), 8.4 (1.5 nM), 8.5 (4 nM), 8.7 (7 nM), 8.8 (3 nM) and 8.9 (4 nM).
(§3) HT-29 cells at 70–80% confluence were collected, and 1.5 × 10^5 cells were placed in a six-well plate in 1.5 mL of the medium. After 24 h, cells were incubated with the corresponding compounds for 48 h. Cells were collected, and the total cellular RNA from the HT-29 cells was isolated using an Ambion RNA Extraction Kit, according to the manufacturer’s instructions. The cDNA was synthesized by MMLV-RT with […] of extracted RNA and oligo(dT)15, according to the manufacturer’s instructions. Genes were amplified by a thermal cycler and StepOnePlus™ TaqMan® probes. TaqMan® Gene Expression Master Mix Fast, containing the appropriate buffer for the amplification conditions, dNTPs, thermostable DNA polymerase enzyme and a passive reference probe, was used. To amplify each of the genes, the predesigned primers sold by Life Technologies TaqMan® Gene Expression Assays Hs99999903-m1 (β-actin), Hs00900055-m1 (VEGF), Hs00972646-m1 (hTERT) and Hs00153408-m1 (c-Myc) were used.

[2] = tested on: A-549 (human pulmonary adenocarcinoma); experiment: Inhibition of cell proliferation (MTT), A-549; format: cell-based; settings: Homo sapiens, A549, 48 h, 48 h of treatment (footnote), average ±SD of three experiments
Method in brief: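 Antiproliferative activity against A-549 human pulmonary adenocarcinoma cells was measured by MTT assay. Cells were seeded at 25,000/mL in 96-well plates, cultured 24 h, then exposed to compounds at various concentrations. MTT (20 µL, 5 mg·mL^−1) was added for 2 h at 37 °C, formazan dissolved in 200 µL DMSO, and absorbance read at 540 nm. IC50 values came graphically from three independent experiments.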

[3] = tested on: A-549 cells; experiment: Cell cycle distribution by flow cytometry; format: cell-based, human; settings: for G0/G1 / G2/M / S / Effect on the cell cycle: A-549, 24 h; for Effect on the cell cycle: concentration per compound as in Tables 6 and 7
Method in brief: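 A-549 cells were harvested, fixed in cold 70% ethanol (30 min, −20 °C), then stained with 50 µg/mL propidium iodide plus 100 µg/mL RNase A in PBS for 20 min at room temperature in the dark. Flow cytometry used 488 nm excitation and 620 nm emission, giving the percentage of cells in G2/M.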

[4] = tested on: hTERT gene; experiment: hTERT gene expression by RT-qPCR in HT-29 cells; format: cell-based, human
Description: as §1, §2, §3

[5] = Homo sapiens, HT-29, 48 h, 30 nM, control 100
[6] = HT-29, 48 h; discussion; concentration per compound
[7] = Homo sapiens, HT-29, 48 h, 25 μM, control 100
[8] = Homo sapiens; HT-29, 48 h, 15 μM; control (DMSO) 100; normalized to β-actin
[9] = Homo sapiens, HT-29, 48 h, 2 nM, control 100
[10] = Homo sapiens, HT-29, 48 h, 7 nM, control 100
[11] = Homo sapiens; HT-29, 48 h, 15 nM; control 100
[12] = Homo sapiens, HT-29, 48 h, 3 nM, control 100
[13] = Homo sapiens; HT-29, 48 h, 25 μM; control 100

## COc1ccc(/C=C\c2cc(OC)c(OC)c(OC)c2)cc1NC(=O)[C@H](CCSC)NC(=O)OCC1c2ccccc2-c2ccccc21 [Compound 7.9]
[1]; [5]
  mrna remaining at 0.03 µM: 68%
[2]; Table 2
  IC50: 407 ± 23 nM
[3]; 2 µM
  G0/G1: 72 ± 2%
  G2/M: 10 ± 3%
  S: 18 ± 1%
[3]
  Effect on the cell cycle: do not accumulate a high percentage of cells in phase G2/M
[4]; [5]
  mrna remaining at 0.03 µM: 77%

## COc1ccc(/C=C\c2cc(OC)c(OC)c(OC)c2)cc1OCC(=O)N[C@@H](CCSC)C(=O)O [Compound 4.9]
[1]; [6]
  downregulation of VEGF gene expression: more than 55%
[1]; [7]
  mrna remaining at 25 µM: 37 to 55%
[2]; Table 1
  IC50: > 300000 nM
[3]; 75 μM
  G0/G1: 76%
  G2/M: 13%
  S: 11%
[3]
  Effect on the cell cycle: do not exert any significant effect on the cells
[4]; [6]
  downregulation of hTERT gene expression: more than 55%
[4]; [7]
  mrna remaining at 25 µM: 38%

## COc1ccc(/C=C\c2cc(OC)c(OC)c(OC)c2)cc1O [CA-4, combretastatin A-4]
[1]; [8]
  mrna remaining at 15 µM: 40%
[2]; Table 1
  IC50: 428 ± 4 nM
[3]; 24 h
  cells accumulated in the G2/M phase: 60%
[3]; 0.05 μM
  G0/G1: 25 ± 1%
  G2/M: 60 ± 2%
  S: 15 ± 1%
[4]; [8]
  mrna remaining at 15 µM: 85%

## COc1ccc(/C=C\c2cc(OC)c(OC)c(OC)c2)cc1OCC(=O)N[C@H](CC(C)C)C(=O)O [Compound 6.2]
[1]; [7]
  mrna remaining at 25 µM: 40%
[2]; Table 1
  IC50: 68000 ± 1000 nM
[3]; 75 μM
  G0/G1: 85 ± 1%
  G2/M: 12 ± 1%
  S: 3 ± 2%
[3]
  Effect on the cell cycle: do not exert any significant effect on the cells
[4]; [7]
  mrna remaining at 25 µM: 87%

## COc1ccc(/C=C\c2cc(OC)c(OC)c(OC)c2)cc1NC(=O)[C@H](Cc1ccccc1)NC(=O)OCC1c2ccccc2-c2ccccc21 [Compound 7.5]
[1]; [6]
  downregulation of VEGF gene expression: more than 60%
[1]; [9]
  mrna remaining at 0.002 µM: 16%
[2]; Table 2
  IC50: 270 ± 50 nM
[3]; 2 µM
  G0/G1: 34 ± 2%
  G2/M: 46 ± 3%
  S: 20 ± 1%
[4]; [9]
  mrna remaining at 0.002 µM: < 70%

## COc1ccc(/C=C\c2cc(OC)c(OC)c(OC)c2)cc1NC(=O)CNC(=O)OCC1c2ccccc2-c2ccccc21 [Compound 7.1]
[1]; [10]
  mrna remaining at 0.007 µM: 69%
[2]; Table 2
  IC50: 186 ± 11 nM
[3]; 0.5 µM
  G0/G1: 28 ± 1%
  G2/M: 54 ± 1%
  S: 18 ± 2%
[4]; [10]
  mrna remaining at 0.007 µM: < 70%

## COc1ccc(/C=C\c2cc(OC)c(OC)c(OC)c2)cc1N [AmCA-4, 3′-aminocombretastatin A-4]
[1]; [11]
  mrna remaining at 0.015 µM: 67%
[2]; Table 2
  IC50: 117 ± 7 nM
[3]; 0.125 µM
  G0/G1: 26 ± 1%
  G2/M: 59 ± 2%
  S: 15 ± 2%
[4]; [11]
  mrna remaining at 0.015 µM: 50%

## COc1ccc(/C=C\c2cc(OC)c(OC)c(OC)c2)cc1NC(=O)[C@H](C)N [Compound 8.2]
[1]; [12]
  mrna remaining at 0.003 µM: 84%
[2]; Table 2
  IC50: 611 ± 16 nM
[3]; 3 µM
  G0/G1: 28 ± 1%
  G2/M: 58 ± 5%
  S: 14 ± 4%
[4]; [12]
  mrna remaining at 0.003 µM: 74%

## COc1ccc(/C=C\c2cc(OC)c(OC)c(OC)c2)cc1OCC(=O)N[C@H](Cc1ccccc1)C(=O)O [Compound 6.3]
[1]; [13]
  mrna remaining at 25 µM: 77%
[2]; Table 1
  IC50: 60000 ± 4000 nM
[3]; 75 μM
  G0/G1: 74 ± 3%
  G2/M: 14 ± 2%
  S: 11 ± 6%
[3]
  Effect on the cell cycle: do not exert any significant effect on the cells
[4]; [13]
  mrna remaining at 25 µM: 68%
